Measured values published in patent US8901118B2, “Compounds and methods for kinase modulation, and indications therefor” (Plexxikon Inc., priority 2010, dated 2014).

Legend:
[1] = target: c-Kit kinase (Homo sapiens, UniProt P10721); assay: c-Kit kinase biochemical activity assay (AlphaScreen, biotin-(E4Y)10 phosphorylation); details: 100 μM ATP; read-out: Biochemical Inhibition IC50 Kit
Description: Assays for biochemical and cell based activity are known in the art, for example, U.S. Patent Application Publication Number 2009/0076046, the disclosure of which is hereby incorporated by reference as it relates to such assays. For example, in one assay the biochemical activity IC50 values are determined with respect to inhibition of c-Kit kinase activity, where inhibition of phosphorylation of a peptide substrate is measured as a function of compound concentration. Compounds to be tested are dissolved in DMSO to a concentration of 20 mM. These are diluted 30 μL into 120 μL of DMSO (4 mM) and 1 μL is added to an assay plate. These are then serially diluted […] (50 μL to 100 μL DMSO) for a total of 8 points. Plates are prepared such that each kinase reaction is 20 μL in 1× kinase buffer (25 mM HEPES, pH 7.5, 2 mM MgCl2, 2 mM MnCl2, 0.01% Tween-20, 1 mM DTT, 0.01% BSA), 5% DMSO and 100 μM ATP. Substrate is 30 nM biotin-(E4Y) 10 (Millipore). C-kit kinase (obtained from Millipore (#14-559) or is prepared as described in U.S. Patent Application Publication Number 2009/0076046, the disclosure of which is hereby incorporated by reference as it relates to this assay) is at 0.75 ng per sample. After incubation of the kinase reaction for 1 hour at room temperature, 5 μL of donor beads (Streptavidin coated beads (Perkin Elmer Life Science) final concentration 10 μg/mL) in stop buffer (25 mM Hepes pH 7.5, 100 mM EDTA, 0.01% BSA) is added, the sample is mixed and incubated for 20 minutes at room temperature before adding 5 μL of acceptor beads (PY20 coated beads (Perkin Elmer Life Science) final concentration 10 μg/mL) in stop buffer. The samples are incubated for 60 minutes at room temperature and the signal per well is read on Envision reader. Phosphorylated substrate results in binding of the PY20 antibody and association of the donor and acceptor beads such that signal correlates with kinase activity. The signal vs. compound concentration is used to determine the IC50.

[2] = target: T1, BCR-FMS BaF3 cells (Homo sapiens, UniProt P07333); assay: BaF3 BCR-FMS cell proliferation assay (ATPlite); assay type: cell-based; details: read-out: Inhibition of Cell Proliferation IC50, BCR/BaF3 Fms
T1 construct: fused on or other part: P11274 (Breakpoint cluster region protein)
T1 sequence (P07333 582-910): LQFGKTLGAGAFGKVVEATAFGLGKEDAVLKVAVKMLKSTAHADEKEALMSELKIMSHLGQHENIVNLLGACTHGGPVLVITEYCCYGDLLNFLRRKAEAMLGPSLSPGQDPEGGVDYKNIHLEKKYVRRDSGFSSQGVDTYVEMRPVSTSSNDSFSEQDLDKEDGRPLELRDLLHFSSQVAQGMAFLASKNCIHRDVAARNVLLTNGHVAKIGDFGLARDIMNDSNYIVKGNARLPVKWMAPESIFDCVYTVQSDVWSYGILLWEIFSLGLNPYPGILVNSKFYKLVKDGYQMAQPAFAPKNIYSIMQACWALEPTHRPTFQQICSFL
Description: Compounds are assessed in a variety of cell based assays. For example BaF3 cells engineered with any of BCR-FMS, BCR-KIT, BCR-FLT3, BCR-NTRK1, BCR-NTRK2, and BCR-NTRK3, are used in cell proliferation assays to assess inhibitory activity of Fms, Kit, Flt-3, TrkA, TrkB, and TrkC, respectively. An MV-4-11 (leukemia) cell proliferation assay is used to assess inhibitory activity in Flt-3, and SKNSH (human neuroblastoma) cell proliferation assay is used to assess efficacy of Fms/Trk inhibitors. Additional cells may be assayed similarly to assess the efficacy of Fms/Trk inhibitors, such as MiaPaCa (human pancreatic cancer) and Capan-1 (human pancreatic carcinoma) cells. Reagent and assay conditions are as follows: • BaF3 cells: • Maintained in RPMI containing 10% FBS, 1% PenStrep, 1% NEAA, and 1% L-Glutamine, supplemented with 1 mg/mL G418 and 5% WEHI-CM (or recombinant murine IL-3). • Confluent cells are split 1:50 to 1:100 every 3-4 days. • MV-4-11 cells: • Maintained in Iscove's Modified Dulbecco's Medium containing 10% FBS. • Confluent cells are split 1:4 every 3-4 days. • SKNSH cells: RPMI containing 10% FBS. On day 1, cells are counted, then centrifuged in a conical tube for 5 minutes at 1000 rpm. The supernatant is removed and cells are re-suspended as follows: • BaF3: resuspend in growth media +1 mg/mL G418 (without WEHFIL-3) to 2×10^5 cells/mL. • MV-4-11: resuspend in growth media to 5×10^5 cells/mL. • SKNSH: resuspend in growth media to 2×10^4 cells/mL. The cells are plated (50 μL, 150 μL for SKNSH cells) in each well of a 96-well dish (Corning 3610) and incubated at 37° C. in 5% CO2 overnight, cells plated to a final concentration of cells as follows: • BaF3: 10,000 cells per well. • MV-4-11: 25,000 cells per well. • SKNSH: 3,000 cells per well. On day 2, compound at a maximum concentration of 5 mM is serially diluted 1:3 for a total of 8 point titration with DMSO as a control. A 1 μL aliquot of each dilution point is added to 249 μL growth media and 50 μL is added to a well containing cells, providing 10 μM compound for the maximum concentration point. The cells are incubated for 3 days at 37° C. in 5% CO2. For SKNSH cells, a 0.75 μL aliquot of appropriate dilution in DMSO is added to 150 μL of cells. On day 5, ATPlite 1 step Luminescence Assay System (Perkin Elmer #6016739) is brought to room temperature along with the cell cultures. ATPlite is added to each well as follows: • BaF3: 25 μL per well. • MV-4-11: 40 μL per well. • SKNSH: 20 μL per well. The cells are incubated at room temperature for 10 minutes, then luminescence is read on Safire reader. The measured luminescence correlates directly with cell number, such that the reading as a function of compound concentration is used to determine the IC50 value.
It is understood that the results of these assays may vary as assay conditions are varied. Inhibition levels determined under the conditions described herein represent a relative activity for the compounds tested under the specific conditions employed. The cell based assays are likely to show variability due to the complexity of the system and the sensitivity thereof to any changes in the assay conditions. […] Results for compounds that are tested and show substantially no inhibition below the highest tested concentration are represented as “-” in the tables below. In some instances, the compounds were not tested in all of the assays, or assay results were not valid, as indicated by NA in the tables below.

Chain of c-Kit kinase (P10721 26-976): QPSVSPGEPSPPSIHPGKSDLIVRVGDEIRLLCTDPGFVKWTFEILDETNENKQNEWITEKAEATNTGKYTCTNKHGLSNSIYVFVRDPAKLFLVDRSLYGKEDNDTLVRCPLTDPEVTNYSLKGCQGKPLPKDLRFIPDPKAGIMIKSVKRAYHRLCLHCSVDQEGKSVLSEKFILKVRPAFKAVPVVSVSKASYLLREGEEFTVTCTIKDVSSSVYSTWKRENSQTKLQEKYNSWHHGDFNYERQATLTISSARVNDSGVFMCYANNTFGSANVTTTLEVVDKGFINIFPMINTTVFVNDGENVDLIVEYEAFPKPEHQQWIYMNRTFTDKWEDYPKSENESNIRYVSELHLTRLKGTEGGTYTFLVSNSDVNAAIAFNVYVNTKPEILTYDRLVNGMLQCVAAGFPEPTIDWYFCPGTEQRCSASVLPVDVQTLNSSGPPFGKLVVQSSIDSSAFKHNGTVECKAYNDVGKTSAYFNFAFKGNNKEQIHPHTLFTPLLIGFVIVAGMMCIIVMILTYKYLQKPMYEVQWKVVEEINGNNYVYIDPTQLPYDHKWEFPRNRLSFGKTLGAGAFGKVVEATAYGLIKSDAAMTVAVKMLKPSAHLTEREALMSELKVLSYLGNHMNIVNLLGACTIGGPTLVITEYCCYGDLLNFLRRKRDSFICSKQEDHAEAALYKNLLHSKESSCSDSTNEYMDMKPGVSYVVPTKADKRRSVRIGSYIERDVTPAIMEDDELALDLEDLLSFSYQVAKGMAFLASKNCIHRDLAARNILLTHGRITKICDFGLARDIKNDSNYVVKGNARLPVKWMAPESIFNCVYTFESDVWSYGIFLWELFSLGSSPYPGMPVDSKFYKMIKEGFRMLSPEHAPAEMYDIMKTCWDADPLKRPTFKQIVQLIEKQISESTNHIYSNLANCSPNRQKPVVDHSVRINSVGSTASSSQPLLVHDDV

In the case of `CCCCNc1ncnc2[nH]cc(C(=O)c3ccc(Nc4ccc(OC)nc4)nc3F)c12` [Compound P-4080, [4-(butylamino)-7H-pyrrolo[2,3-d]pyrimidin-5-yl]-[2-fluoro-6-[(6-methoxy-3-pyridyl)amino]-3-pyridyl]methanone], the IC50 [1] is reported as < 1000 nM and the IC50 [2] is reported as < 100 nM.

`CCNc1ncnc2[nH]cc(C(=O)c3ccc(Nc4ccc(OC)nc4)nc3F)c12` [Compound P-4081, [4-(ethylamino)-7H-pyrrolo[2,3-d]pyrimidin-5-yl]-[2-fluoro-6-[(6-methoxy-3-pyridyl)amino]-3-pyridyl]methanone] was tested, and the IC50 [1] was < 100 nM and the IC50 [2] was < 10 nM.

For `COc1ccc(Nc2ccc(C(=O)c3c[nH]c4ncnc(NC5CCCCC5)c34)c(F)n2)cn1` [Compound P-4082, [4-(cyclohexylamino)-7H-pyrrolo[2,3-d]pyrimidin-5-yl]-[2-fluoro-6-[(6-methoxy-3-pyridyl)amino]-3-pyridyl]methanone], the IC50 [1] was < 1000 nM and the IC50 [2] was < 10 nM.

For `CNc1ncnc2[nH]cc(C(=O)c3ccc(Nc4ccc(OC)nc4)nc3F)c12` [Compound P-4083, [2-fluoro-6-[(6-methoxy-3-pyridyl)amino]-3-pyridyl]-[4-(methylamino)-7H-pyrrolo[2,3-d]pyrimidin-5-yl]methanone], the IC50 [1] was < 100 nM and the IC50 [2] was < 100 nM.

For `COc1ccc(Nc2ccc(C(=O)c3c[nH]c4ncnc(NCC(F)(F)F)c34)c(F)n2)cn1` [Compound P-4084, [2-fluoro-6-[(6-methoxy-3-pyridyl)amino]-3-pyridyl]-[4-(2,2,2-trifluoroethylamino)-7H-pyrrolo[2,3-d]pyrimidin-5-yl]methanone], the IC50 [1] was < 100 nM and the IC50 [2] was < 10 nM.

In the case of `CNc1ncnc2[nH]cc(C(=O)c3ccc(Nc4ccc(OC)nc4)nc3OC)c12` [Compound P-4085, [2-methoxy-6-[(6-methoxy-3-pyridyl)amino]-3-pyridyl]-[4-(methylamino)-7H-pyrrolo[2,3-d]pyrimidin-5-yl]methanone], the IC50 [1] is reported as < 1000 nM and the IC50 [2] is reported as < 1000 nM.

With `O=C(c1ccc(NC2CCC(F)(F)CC2)nc1)c1c[nH]c2ncnc(NCC(F)(F)F)c12` [Compound P-4087, [6-[(4,4-difluorocyclohexyl)amino]-3-pyridyl]-[4-(2,2,2-trifluoroethylamino)-7H-pyrrolo[2,3-d]pyrimidin-5-yl]methanone] the IC50 [1] was < 100 nM and the IC50 [2] was < 1000 nM.

In the case of `O=C(c1ccc(NC2CCC(F)(F)CC2)nc1)c1c[nH]c2ncnc(NC3CC3)c12` [Compound P-4088, [4-(cyclopropylamino)-7H-pyrrolo[2,3-d]pyrimidin-5-yl]-[6-[(4,4-difluorocyclohexyl)amino]-3-pyridyl]methanone], the IC50 [1] is reported as < 1000 nM and the IC50 [2] is reported as < 100 nM.

`CNc1ncnc2[nH]cc(C(=O)c3ccc(NC4CCC(F)(F)CC4)nc3)c12` [Compound P-4089, [6-[(4,4-difluorocyclohexyl)amino]-3-pyridyl]-[4-(methylamino)-7H-pyrrolo[2,3-d]pyrimidin-5-yl]methanone] was tested, and the IC50 [1] was < 1000 nM and the IC50 [2] was < 100 nM.

`O=C(c1ccc(Nc2ccc(C3CC3)nc2)nc1F)c1c[nH]c2ncnc(NCC(F)(F)F)c12` [Compound P-4090, [6-[(6-cyclopropyl-3-pyridyl)amino]-2-fluoro-3-pyridyl]-[4-(2,2,2-trifluoroethylamino)-7H-pyrrolo[2,3-d]pyrimidin-5-yl]methanone] was tested, and the IC50 [1] was < 1000 nM and the IC50 [2] was < 100 nM.

`O=C(c1ccc(Nc2ccc(C(F)(F)F)nc2)nc1F)c1c[nH]c2ncnc(NC3CC3)c12` [Compound P-4091, [4-(cyclopropylamino)-7H-pyrrolo[2,3-d]pyrimidin-5-yl]-[2-fluoro-6-[[6-(trifluoromethyl)-3-pyridyl]amino]-3-pyridyl]methanone] was tested, and the IC50 [1] was < 100 nM and the IC50 [2] was < 10 nM.

`CNc1ncnc2[nH]cc(C(=O)c3ccc(Nc4ccc(C(F)(F)F)nc4)nc3F)c12` [Compound P-4092, [2-fluoro-6-[[6-(trifluoromethyl)-3-pyridyl]amino]-3-pyridyl]-[4-(methylamino)-7H-pyrrolo[2,3-d]pyrimidin-5-yl]methanone] was tested, and the IC50 [1] was < 100 nM and the IC50 [2] was < 10 nM.

In the case of `O=C(c1ccc(Nc2ccc(C3CC3)nc2)nc1F)c1c[nH]c2ncnc(NC3CC3)c12` [Compound P-4093, [4-(cyclopropylamino)-7H-pyrrolo[2,3-d]pyrimidin-5-yl]-[6-[(6-cyclopropyl-3-pyridyl)amino]-2-fluoro-3-pyridyl]methanone], the IC50 [1] is reported as < 100 nM and the IC50 [2] is reported as < 10 nM.

`CNc1ncnc2[nH]cc(C(=O)c3ccc(Nc4ccc(C5CC5)nc4)nc3F)c12` [Compound P-4094, [6-[(6-cyclopropyl-3-pyridyl)amino]-2-fluoro-3-pyridyl]-[4-(methylamino)-7H-pyrrolo[2,3-d]pyrimidin-5-yl]methanone] was tested, and the IC50 [1] was < 10 nM and the IC50 [2] was < 100 nM.

For `CCc1ccc(Nc2ccc(C(=O)c3c[nH]c4ncnc(NC5CCC5)c34)c(F)n2)cn1` [Compound P-4095, [4-(cyclobutylamino)-7H-pyrrolo[2,3-d]pyrimidin-5-yl]-[6-[(6-ethyl-3-pyridyl)amino]-2-fluoro-3-pyridyl]methanone], the IC50 [1] was < 100 nM and the IC50 [2] was < 10 nM.

With `CCc1ccc(Nc2ccc(C(=O)c3c[nH]c4ncnc(NC5CCC(F)(F)CC5)c34)c(F)n2)cn1` [Compound P-4096, [4-[(4,4-difluorocyclohexyl)amino]-7H-pyrrolo[2,3-d]pyrimidin-5-yl]-[6-[(6-ethyl-3-pyridyl)amino]-2-fluoro-3-pyridyl]methanone] the IC50 [1] was < 1000 nM and the IC50 [2] was < 10 nM.
